From ChEMBL document CHEMBL5137082, “Discovery of a Novel Vascular Disrupting Agent Inhibiting Tubulin Polymerization and HDACs with Potent Antitumor Effects” (J Med Chem, 2022)
The source made the active and inactive calls. The calls are words filed in the database; no cut-off is given here.

Columns and labels:
[1] = test system: HepG2; assay: Induction of apoptosis in human HepG2 cells assessed as early apoptotic cells at 7.5 nM incubated for 48 hrs by Annexin-V/PI-staining based flow cytometry (reference value: 4.61 +/- 0.46%); type: functional
[2] = test system: Mus musculus; assay: In vivo inhibition of HDAC in ICR mouse allografted with mouse H22 cells assessed as upregulation of acetyl-alpha tubulin expression at 20 mg/kg, iv qd administered for 21 days measured after 24 hrs by Western blot analysis; type: functional, organism-based; settings: time 21.0 day
[3] = test system: HepG2; assay: Antiproliferative activity against human HepG2 cells assessed as inhibition of cell growth measured after 72 hrs by MTT assay; type: functional, cell-based; settings: HepG2, 72 h
[4] = test system: HepG2; assay: Induction of G2/M phase cell cycle arrest in human HepG2 cells assessed as decrease in Cdc2 protein expression at 7.5 to 30 nM measured after 24 hrs by western blot analysis; type: functional, cell-based; settings: dose 7.5-30 nM
[5] = test system: HepG2; assay: Induction of cell cycle arrest in human HepG2 cells assessed as accumulation G1 phase at 15 nM incubated for 48 hrs by propidium iodide staining based flow cytometry analysis (reference value: 59.32 +/- 0.77%); type: functional
[6] = test system: H22; assay: Antivascular activity against mouse H22 cells allografted in ICR mouse assessed as reduction in tumor microvessel density by measuring CD31-positive cells at 20 mg/kg, iv administered qd measured after 21 days by immunohistochemistry analysis; type: functional, organism-based; settings: time 21.0 day
[7] = test system: HepG2; assay: Induction of apoptosis in human HepG2 cells assessed as viable cells at 15 nM incubated for 48 hrs by Annexin-V/PI-staining based flow cytometry (reference value: 91.44 +/- 0.74%); type: functional; settings: read-out: Activity
[8] = test system: HUVEC; assay: Antimigratory activity against HUVEC cells assessed as suppression of migration measured after 24 hrs by Wound healing assay; type: functional, cell-based; settings: Homo sapiens, dose 7.5-30 nM, DDE = dose-dependent effect
[9] = test system: HepG2; assay: Induction of ROS generation in human HepG2 cells assessed as increase in ROS level at 30 nM incubated for 48 hrs by DCF-DA staining-based flow cytometry analysis (reference value: 3.73%); type: functional
[10] = test system: PC-3; assay: Induction of apoptosis in human PC-3 cells assessed as mitochondrial membrane potential loss by measuring increase in green fluorescence at 7.5 nM incubated for 48 hrs by JC1 staining based flow cytometry analysis (reference value: 6.50 +/- 0.17%); type: functional
[11] = test system: HepG2; assay: Induction of G2/M phase cell cycle arrest in human HepG2 cells assessed as decrease in Cdc25c protein expression at 7.5 to 30 nM measured after 24 hrs by western blot analysis; type: functional, cell-based; settings: dose 7.5-30 nM
[12] = test system: HepG2; assay: Induction of cell cycle arrest in human HepG2 cells assessed as accumulation S phase at 15 nM incubated for 48 hrs by propidium iodide staining based flow cytometry analysis (reference value: 17.14 +/- 0.34%); type: functional
[13] = molecular target: Tubulin (Homo sapiens) (UniProt P68371+Q9H4B7+P0DPH7+P68366+Q13509+Q71U36+P04350+Q3ZCM7+P07437+P68363+Q9BQE3+Q6PEY2+Q13885+Q9BVA1+Q9BUF5); assay: Inhibition of [3H]Colchicine binding to tubulin (unknown origin) at 1 uM measured after 2 hrs by scintillation counting method relative to control; type: protein-complex assay
[14] = test system: H22; assay: Antiproliferative activity against mouse H22 cells assessed as inhibition of cell growth measured after 72 hrs by MTT assay; type: functional, cell-based; settings: H22, 72 h
[15] = Metabolic stability in mouse liver microsomes assessed as half life at 1 uM in presence of NADPH measured up to 60 mins by LC-MS/MS analysis; type: ADME, Microsome
[16] = Metabolic stability in mouse liver microsomes assessed as metabolic bioavailability at 1 uM in presence of NADPH measured up to 60 mins by LC-MS/MS analysis; type: ADME, Microsome
[17] = molecular target: Histone deacetylase 2 (Homo sapiens, UniProt Q92769); assay: Inhibition of HDAC2 in human HeLa cells using BOC-K(Ac)-AMC as substrate measured after 30 mins by fluorescence based microtiter plate reader assay; type: cell-based
[18] = test system: MCF7; assay: Antiproliferative activity against human MCF7 cells assessed as inhibition of cell growth measured after 72 hrs by MTT assay; type: functional, cell-based; settings: MCF7, 72 h
[19] = test system: HepG2; assay: Induction of apoptosis in human HepG2 cells assessed as early apoptotic cells at 15 nM incubated for 48 hrs by Annexin-V/PI-staining based flow cytometry (reference value: 4.61 +/- 0.46%); type: functional
[20] = Antiproliferative activity against human HFL1 cells assessed as inhibition of cell growth measured after 72 hrs by MTT assay; type: toxicity, cell-based
[21] = test system: HepG2; assay: Induction of apoptosis in human HepG2 cells assessed as viable cells at 7.5 nM incubated for 48 hrs by Annexin-V/PI-staining based flow cytometry (reference value: 91.44 +/- 0.74%); type: functional; settings: read-out: Activity
[22] = test system: HepG2; assay: Induction of cell cycle arrest in human HepG2 cells assessed as accumulation G1 phase at 30 nM incubated for 48 hrs by propidium iodide staining based flow cytometry analysis (reference value: 59.32 +/- 0.77%); type: functional
[23] = Metabolic stability in mouse assessed as hepatic clearance; type: ADME; settings: 1 h, 1 µM, time < 60 min
[24] = Cardiotoxicity in ICR mouse allografted with mouse H22 cells assessed as effect on T wave at 20 mg/kg, iv administered qd measured after 21 days by ECG analysis; type: toxicity, organism-based; settings: in vivo, 504 h, time 21 day
[25] = test system: K562; assay: cells; type: functional, cell-based; settings: Homo sapiens, K562, 72 h
Description: Antiproliferative activity against human K562 cells assessed as inhibition of cell growth measured after 72 hrs by MTT assay

[26] = molecular target: T1, Histone deacetylase 8 (Homo sapiens, UniProt Q9BY41); assay: Inhibition of HDAC8 in human HeLa cells using BOC-K(Ac)-AMC as substrate measured after 30 mins by fluorescence based microtiter plate reader assay; type: cell-based
T1 sequence (Q9BY41 whole entry): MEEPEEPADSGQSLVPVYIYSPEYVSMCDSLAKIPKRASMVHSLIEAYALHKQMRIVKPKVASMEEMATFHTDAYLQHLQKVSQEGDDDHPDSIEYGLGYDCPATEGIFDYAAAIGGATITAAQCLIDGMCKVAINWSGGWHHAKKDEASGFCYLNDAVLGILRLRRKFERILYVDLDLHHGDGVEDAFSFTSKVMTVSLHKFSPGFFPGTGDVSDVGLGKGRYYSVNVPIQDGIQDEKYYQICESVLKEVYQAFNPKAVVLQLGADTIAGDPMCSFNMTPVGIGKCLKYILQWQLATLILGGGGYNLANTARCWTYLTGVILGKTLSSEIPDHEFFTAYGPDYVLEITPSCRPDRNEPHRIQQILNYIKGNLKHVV

[27] = Metabolic stability in mouse plasma assessed as half life at 40 uM measured upto 5 hrs by LC-MS/MS analysis; type: ADME, cell-free
[28] = test system: H22; assay: Antitumor activity against mouse H22 cells allografted in ICR mouse assessed as reduction in tumor weight at 20 mg/kg, iv administered qd measured after 21 days; type: functional; parameters: scale not given: the % may be the effect or the level left; settings: time 21 day
[29] = Metabolic stability in mouse plasma assessed as compound remaining at 40 uM measured after 5 hrs by LC-MS/MS analysis (reference value: 100%); type: ADME, cell-free
[30] = test system: HepG2; assay: Induction of apoptosis in human HepG2 cells assessed as late apoptotic cells at 15 nM incubated for 48 hrs by Annexin-V/PI-staining based flow cytometry (reference value: 2.53 +/- 0.34%); type: functional

Histone deacetylase 2, sequence (Q92769 whole entry): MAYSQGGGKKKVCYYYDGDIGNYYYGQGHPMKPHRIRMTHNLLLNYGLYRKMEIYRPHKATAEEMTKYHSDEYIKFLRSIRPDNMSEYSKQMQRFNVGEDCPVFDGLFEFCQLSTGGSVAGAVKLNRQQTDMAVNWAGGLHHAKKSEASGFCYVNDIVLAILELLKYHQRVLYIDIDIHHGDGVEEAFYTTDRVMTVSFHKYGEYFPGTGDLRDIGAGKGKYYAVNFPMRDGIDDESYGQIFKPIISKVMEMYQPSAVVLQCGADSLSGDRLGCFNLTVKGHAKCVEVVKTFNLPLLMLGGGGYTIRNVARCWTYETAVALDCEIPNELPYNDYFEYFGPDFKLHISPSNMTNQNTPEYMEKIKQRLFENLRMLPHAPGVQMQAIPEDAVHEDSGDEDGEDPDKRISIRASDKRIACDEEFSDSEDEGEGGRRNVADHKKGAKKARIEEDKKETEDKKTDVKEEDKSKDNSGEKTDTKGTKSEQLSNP

SMILES: COc1ccc(CNC(=O)c2cc(F)ccc2N2CCOCC2)cc1/C=C/C(=O)NO
- Activity [1]: 20.15%
- inhibition [2]: Active
- IC50 [3]: 29 nM
- Activity [4]: Active
- Activity [5]: 49.96%
- Activity [6]: Active
- viability at 0.015 µM [7]: 65.7%
- Activity [8]: Dde
- Activity [9]: 46.69%
- Activity [10]: 23.22%
- Activity [11]: Active
- Activity [12]: 23.06%
- inhibition [13]: 52.3%
- IC50 [14]: 26 nM
- half-life at 1 µM [15]: 0.838 h
- Fh at 1 h, 1 µM [16]: 51.6%
- IC50 [17]: 135 nM
- IC50 [18]: 27 nM
- Activity [19]: 26.84%
- IC50 at 72 h [20]: 13 nM
- viability at 0.0075 µM [21]: 71.6%
- Activity [22]: 43.33%
- CLH [23]: 1.45 mL/min
- Activity [24]: Non-Toxic
- IC50 [25]: 18 nM
- IC50 [26]: 2120 nM
- half-life at 40 µM [27]: 2.1 h
- Activity [28]: 83%
- Stability [29]: 16%
- Activity [30]: 6.36%
